Assay: xn = mol fraction of the nth substance listed
Conditions: 101 kPa, Liquid, Vibrating tube method

CCCC[N+]1(C)CCCC1.FC(F)(F)C(F)(F)[P-](F)(F)(F)(C(F)(F)C(F)(F)F)C(F)(F)C(F)(F)F + CNC=O
mass density [kg/m3]
Conditions | 293.15 K | 298.15 K | 303.15 K | 308.15 K | 313.15 K | 318.15 K | 323.15 K
x1 = 0.017 | 1058.37 | 1053.77 | 1049.14 | 1044.53 | 1039.79 | 1035.11 | 1030.3
x1 = 0.038 | 1115.08 | 1110.31 | 1105.47 | 1100.72 | 1095.79 | 1091 | 1085.98
x1 = 0.064 | 1172.33 | 1167.39 | 1162.43 | 1157.5 | 1152.45 | 1147.53 | 1142.27
x1 = 0.1395 | 1288.62 | 1283.34 | 1278.09 | 1272.85 | 1267.61 | 1262.38 | 1256.78
x1 = 0.1994 | 1349.8 | 1344.44 | 1339.03 | 1333.6 | 1328.11 | 1322.58 | 1317.13
x1 = 0.2991 | 1419.35 | 1413.93 | 1408.4 | 1402.86 | 1397.22 | 1391.56 | 1385.88
x1 = 0.4005 | 1466.49 | 1460.95 | 1455.39 | 1449.79 | 1444.2 | 1438.48 | 1432.75
x1 = 0.5044 | 1501.13 | 1495.58 | 1490.07 | 1484.49 | 1478.87 | 1473.25 | 1467.48
x1 = 0.5964 | 1524.64 | 1519.12 | 1513.49 | 1507.92 | 1502.28 | 1496.79 | 1491.13
x1 = 0.6471 | 1535.54 | 1530.04 | 1524.39 | 1518.85 | 1513.18 | 1507.72 | 1502.01
x1 = 0.7548 | 1555.34 | 1549.77 | 1544.13 | 1538.58 | 1532.92 | 1527.43 | 1521.8
x1 = 0.8413 | 1568.65 | 1563.05 | 1557.45 | 1551.88 | 1546.25 | 1540.73 | 1535.12
x1 = 0.9029 | 1577.04 | 1571.47 | 1565.91 | 1560.34 | 1554.73 | 1549.18 | 1543.58
